Data: patent US20100197650A1, “COMPOSITIONS AND METHODS OF TREATMENT COMPRISING CEFTAROLINE” (FOREST LABORATORIES HOLDINGS LTD., priority 2008, published 2010)
Converted amounts (≈) assume the structure as drawn.

Columns and labels:
Enterococcus faecalis = assay: MIC, broth microdilution (Example 1); type: cell-based
Procedure: (§1) Stock solutions of all antibacterial agents were prepared at 80-fold (80×) the final target concentration in the appropriate solvent and the solution was allowed to stand for 60 minutes. All antibacterial agents were in solution under these conditions. The final drug concentrations in the FIC assay plates were set to bracket the MIC value of each agent for each test organism, unless the strain was totally resistant to the test agent.
(§2) The test organisms were originally received from clinical sources, or from the American Type Culture Collection. Upon receipt, the isolates were streaked onto the appropriate growth medium: Chocolate Agar for H. influenzae, Tryptic Soy Agar II (Becton Dickinson, Sparks, Md.) supplemented with 5% defibrinated sheep blood for streptococci, and unsupplemented Tryptic Soy Agar II for all other organisms. Colonies were harvested from these plates and a cell suspension was prepared in Tryptic Soy Broth (Becton Dickinson) containing cryoprotectant. Aliquots were then frozen at −80° C. On the day prior to assay, the frozen seeds of the organisms to be tested in that session were thawed and streaked for isolation onto the appropriate agar medium plates and incubated overnight at 35° C.
(§3) The test medium for H. influenzae was Haemophilus Test Medium. Streptococci were tested in Mueller Hinton II Broth (Becton Dickinson; Lot 6235472) supplemented with 2% lysed horse blood (Cleveland Scientific, Bath, Ohio; Lot H88621). All other organisms were tested in Mueller Hinton II Broth (Becton Dickinson, Lot 6235472). The broth was prepared at 1.05× normal weight/volume to offset the 5% volume of the drugs in the final test plates.
(§4) In order to select the proper test concentrations for each drug combination, minimal inhibitory concentration (MIC) values were first determined using the broth microdilution method previously described (Clinical and Laboratory Standards Institute. Methods for Dilution Antimicrobial Susceptibility Tests for Bacteria That Grow Aerobically; Approved Standard—Seventh Edition. Clinical and Laboratory Standards Institute document M7-A7 [ISBN 1-56238-587-9]. Clinical and Laboratory Standards Institute, 940 West Valley Road, Suite 1400, Wayne, Pa. 19087-1898 USA, 2006).
(§5) The wells of standard 96-well microdilution plates (Falcon 3918) were filled with 150 μL of 100% DMSO using the Multidrop 384. These plates were used to prepare the drug “mother plates” which provided the serial drug dilutions for the drug combination plates. The Biomek 2000 was used to transfer 150 μl of each stock solution (80×) from the wells in Column 1 of a deep well plate to the corresponding wells in Column 1 of the mother plate and to make seven 2-fold serial dilutions. Two mother plates, one for each drug, were combined to form a “checkerboard” pattern by transfer of equal volumes (using a multi-channel pipette) to the drug combination plate. Row H and Column 8 each contained serial dilutions of one of the agents alone for determination of the MIC.
(§6) Plates were stacked 3 high, covered with a lid on the top plate, placed in plastic bags, and incubated at 35° C. for approximately 20 hours. Following incubation, the microplates were removed from the incubator and viewed from the bottom using a ScienceWare plate viewer. Prepared reading sheets were marked for the MIC of drug 1 (row H), the MIC of drug 2 (column 8) and the wells of the growth-no growth interface.

Staphylococcus aureus = assay: MIC, broth microdilution (Example 1); type: cell-based; details: Staphylococcus aureus
Procedure: as §1, §2, §3, §4, §5, §6

Streptococcus pneumoniae = assay: MIC, broth microdilution (Example 1); type: cell-based; details: Streptococcus pneumoniae
Procedure: as §1, §2, §3, §4, §5, §6

HA-MRSA [1] = assay: Susceptibility testing MIC/MBC, broth microdilution (Example 3); type: cell-based, Staphylococcus aureus
Procedure: Two hundred clinical HA-MRSA isolates, harboring the SCCmecIV type, were evaluated for susceptibility testing. […] Four strains, including 1 hVISA and 1 VISA, characterized by population analysis profile and Macro Etest were selected for time-kill analysis.
Trypose soy agar (TSA; Difco, Detroit, Mich.) was used for colony counting.
Minimum inhibitory concentrations (MIC) and minimum bactericidal concentrations (MBC) were determined by broth microdilution for all antimicrobials, according to the Clinical and Laboratory Standards Institute (CLSI) guidelines (Clinical and Laboratory Standards Institute. 2006. Methods for Dilution Antimicrobial Susceptibility Tests for Bacteria That Grow Aerobically; Approved Standard. 7th ed. Wayne, Pa.: CLSI). MBC values were determined by plating of aliquots of 5 μL from clear wells onto TSA. All susceptibility testing were performed in duplicate.

HA-MRSA [2] = assay: Time-kill curves at ¼ and ½ MIC (Example 3); type: cell-based, Staphylococcus aureus; details: drug alone at ½ MIC, the 4 tested HA-MRSA strains
Procedure: Four randomly selected HA-MRSA isolates were evaluated in time-kill experiments, using a starting inoculum at ˜10^6 CFU/mL and antimicrobials at ¼ and ½ MIC. Regimens included ceftaroline, vancomycin and tobramycin alone or combination of tobramycin with ceftaroline or vancomycin. […] Additivity, antagonism and indifference were defined as <2 but >1 log10 kill, >1 log10 growth and ±1 log kill, respectively.
Differences between regimens were analyzed by T-test or ANOVA with Tukey's post hoc test. […] A P value <0.05 was considered significant.

[3] = Staphylococcus aureus, MRSA / VISA, HA-MRSA isolate R2303 (VISA)
[4] = Staphylococcus aureus, MRSA, HA-MRSA isolate R3804
[5] = Staphylococcus aureus, MRSA, HA-MRSA isolate R3875 (hVISA)
[6] = Staphylococcus aureus, MRSA, HA-MRSA isolate R4039

Compound: CN[C@H](CC(C)C)C(=O)N[C@H]1C(=O)N[C@@H](CC(N)=O)C(=O)N[C@H]2C(=O)N[C@H]3C(=O)N[C@H](C(=O)N[C@H](C(=O)O)c4cc(O)cc(O)c4-c4cc3ccc4O)[C@H](O)c3ccc(c(Cl)c3)Oc3cc2cc(c3O[C@@H]2O[C@H](CO)[C@@H](O)[C@H](O)[C@H]2O[C@H]2C[C@](C)(N)[C@H](O)[C@H](C)O2)Oc2ccc(cc2Cl)[C@H]1O [Vancomycin]
- MIC (Enterococcus faecalis; E. faecalis 0796 (VSE)): 2 µg/mL
- MIC (Enterococcus faecalis; Enterococcus faecalis): 2 µg/mL
- MIC (Staphylococcus aureus; MRSA, S. aureus 0765 (MRSA)): 2 µg/mL
- MIC (Staphylococcus aureus; MRSA, S. aureus 2053 (MRSA)): 1 µg/mL
- MIC (Staphylococcus aureus; MSSA, S. aureus 0753 (MSSA)): 1 µg/mL
- MIC (Staphylococcus aureus; MSSA, S. aureus 2063 (MSSA)): 1 µg/mL
- MIC (Streptococcus pneumoniae; PRSP, S. pneumoniae 0880 (PRSP)): 0.5 µg/mL
- MIC (Streptococcus pneumoniae; PRSP, S. pneumoniae 0884 (PRSP)): 0.5 µg/mL
- MIC (Streptococcus pneumoniae; S. pneumoniae 0866 (PSSP)): 0.25 µg/mL
- MIC (Streptococcus pneumoniae; S. pneumoniae 0869 (PSSP)): 0.5 µg/mL
- % of Isolates with MBC 0.25 μg/mL (HA-MRSA [1]; 200 HA-MRSA isolates): 0.5%
- % of Isolates with MBC 0.5 μg/mL (HA-MRSA [1]; 200 HA-MRSA isolates): 6%
- % of Isolates with MBC 1 μg/mL (HA-MRSA [1]; 200 HA-MRSA isolates): 52.5%
- % of Isolates with MBC 2 μg/mL (HA-MRSA [1]; 200 HA-MRSA isolates): 36.5%
- % of Isolates with MBC ≧4 μg/mL (HA-MRSA [1]; 200 HA-MRSA isolates): 4.5%
- % of Isolates with MIC 0.25 μg/mL (HA-MRSA [1]; 200 HA-MRSA isolates): 1.5%
- % of Isolates with MIC 0.5 μg/mL (HA-MRSA [1]; 200 HA-MRSA isolates): 14.5%
- % of Isolates with MIC 1 μg/mL (HA-MRSA [1]; 200 HA-MRSA isolates): 62%
- % of Isolates with MIC 2 μg/mL (HA-MRSA [1]; 200 HA-MRSA isolates): 21.5%
- % of Isolates with MIC ≧4 μg/mL (HA-MRSA [1]; 200 HA-MRSA isolates): 0.5%
- MBC range (HA-MRSA [1]; 200 HA-MRSA isolates): 0.25 to 4 µg/mL
- MIC range (HA-MRSA [1]; 200 HA-MRSA isolates): 0.25 to 4 µg/mL
- MIC50 (HA-MRSA [1]; Staphylococcus aureus, MRSA): 1 µg/mL (≈ 0.69 µM)
- MIC90 (HA-MRSA [1]; Staphylococcus aureus, MRSA): 2 µg/mL (≈ 1.38 µM)
- MBC (HA-MRSA [1]; [3]): 8 µg/mL (≈ 5.52 µM)
- MIC (HA-MRSA [1]; [3]): 4 µg/mL (≈ 2.76 µM)
- MBC (HA-MRSA [1]; [4]): 1 µg/mL (≈ 0.69 µM)
- MIC (HA-MRSA [1]; [4]): 0.5 µg/mL (≈ 0.345 µM)
- MBC (HA-MRSA [1]; [5]): 2 µg/mL (≈ 1.38 µM)
- MIC (HA-MRSA [1]; [5]): 2 µg/mL (≈ 1.38 µM)
- MBC (HA-MRSA [1]; [6]): 1 µg/mL (≈ 0.69 µM)
- MIC (HA-MRSA [1]; [6]): 1 µg/mL (≈ 0.69 µM)
- bactericidal activity (HA-MRSA [2]): did not display bactericidal activity
